Where “and” joins values, the source holds several entries; their conditions need not be identical. Equal entries are not always repeated.
Experiments:
[1] = target: T1, BRAF (Homo sapiens, UniProt P15056); test: In vitro kinase screening (Kinase HotSpot); format: biochemical
T1 construct: purchased Reaction Biology Corp
Excerpt: (§1) To investigate the biological target of compound, Reaction Biology Corp. Kinase HotSpotSM service was used adopting standard assay protocol.

[2] = target: T2, KDR/VEGFR2 (Homo sapiens, UniProt P35968); test: In vitro kinase screening (Kinase HotSpot); format: biochemical; conditions: single dose of 10 µM
T2 construct: purchased Reaction Biology Corp
Excerpt: as §1

[3] = target: T3, FMS (Homo sapiens, UniProt P07333); test: In vitro kinase screening (Kinase HotSpot); format: biochemical; conditions: single dose of 10 µM
T3 construct: purchased Reaction Biology Corp
Excerpt: as §1

[4] = target: T4, ROS/ROS1 (Homo sapiens, UniProt P08922); test: In vitro kinase screening (Kinase HotSpot); format: biochemical; conditions: single dose of 10 µM
T4 construct: purchased Reaction Biology Corp
Excerpt: as §1

[5] = target: T5, GSK3b (Homo sapiens, UniProt P49841); test: In vitro kinase screening (Kinase HotSpot); format: biochemical; conditions: single dose of 10 µM, 10 µM
T5 construct: purchased Reaction Biology Corp
Excerpt: as §1

[6] = target: T6, ERK2/MAPK1 (Homo sapiens, UniProt P28482); test: In vitro kinase screening (Kinase HotSpot); format: biochemical; conditions: single dose of 10 µM
T6 construct: purchased Reaction Biology Corp
Excerpt: as §1

[7] = target: T7, IKKb/IKBKB (Homo sapiens, UniProt O14920); test: In vitro kinase screening (Kinase HotSpot); format: biochemical; conditions: single dose of 10 µM
T7 construct: purchased Reaction Biology Corp
T7 sequence (O14920 1-756): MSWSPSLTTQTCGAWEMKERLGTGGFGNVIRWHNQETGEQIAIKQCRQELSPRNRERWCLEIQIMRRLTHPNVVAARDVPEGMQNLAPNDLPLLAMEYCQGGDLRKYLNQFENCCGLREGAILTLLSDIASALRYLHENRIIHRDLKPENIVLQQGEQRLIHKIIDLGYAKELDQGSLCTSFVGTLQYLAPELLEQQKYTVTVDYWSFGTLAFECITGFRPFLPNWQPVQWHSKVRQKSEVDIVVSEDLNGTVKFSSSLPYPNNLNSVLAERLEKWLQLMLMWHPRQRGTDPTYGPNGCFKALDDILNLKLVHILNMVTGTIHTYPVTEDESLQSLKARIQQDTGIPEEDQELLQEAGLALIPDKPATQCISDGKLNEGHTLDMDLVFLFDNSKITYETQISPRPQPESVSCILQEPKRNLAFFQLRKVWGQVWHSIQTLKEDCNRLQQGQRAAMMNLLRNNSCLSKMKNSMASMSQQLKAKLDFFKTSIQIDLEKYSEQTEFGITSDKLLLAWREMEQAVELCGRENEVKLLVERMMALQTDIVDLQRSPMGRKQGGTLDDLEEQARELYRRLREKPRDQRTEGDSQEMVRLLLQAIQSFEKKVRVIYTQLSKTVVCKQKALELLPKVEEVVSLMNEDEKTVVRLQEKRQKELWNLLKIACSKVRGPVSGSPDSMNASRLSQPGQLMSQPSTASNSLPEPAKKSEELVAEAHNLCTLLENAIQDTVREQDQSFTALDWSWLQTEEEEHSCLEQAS
Excerpt: as §1

[8] = target: T8, MEK2 (Homo sapiens, UniProt P36507); test: In vitro kinase screening (Kinase HotSpot); format: biochemical; conditions: single dose of 10 µM
T8 construct: purchased Reaction Biology Corp
Excerpt: as §1

[9] = target: T9, EGFR (Homo sapiens, UniProt P00533); test: In vitro kinase screening (Kinase HotSpot); format: biochemical; conditions: single dose of 10 µM
T9 construct: purchased Reaction Biology Corp
Excerpt: as §1

[10] = target: T10, P38a/MAPK14 (Homo sapiens, UniProt Q16539); test: In vitro kinase screening (Kinase HotSpot); format: biochemical
T10 construct: purchased Reaction Biology Corp
Excerpt: as §1

[11] = target: T11, MKK6 (Homo sapiens, UniProt P52564); test: In vitro kinase screening (Kinase HotSpot); format: biochemical; conditions: single dose of 10 µM
T11 construct: purchased Reaction Biology Corp
Excerpt: as §1

[12] = target: T12, ERK1 (Homo sapiens, UniProt P27361); test: In vitro kinase screening (Kinase HotSpot); format: biochemical; conditions: single dose of 10 µM
T12 construct: purchased Reaction Biology Corp
Excerpt: as §1

[13] = target: T13, MEK1 (Homo sapiens, UniProt Q02750); test: In vitro kinase screening (Kinase HotSpot); format: biochemical; conditions: single dose of 10 µM
T13 construct: purchased Reaction Biology Corp
Excerpt: as §1

[14] = target: T14, RAF1 (Homo sapiens, UniProt P04049); test: In vitro kinase screening (Kinase HotSpot); format: biochemical
T14 construct: purchased Reaction Biology Corp
Excerpt: as §1

[15] = target: T15, JNK1 (Homo sapiens, UniProt P45983); test: In vitro kinase screening (Kinase HotSpot); format: biochemical
T15 construct: purchased Reaction Biology Corp
Excerpt: as §1

[16] = target: T16, JNK3 (Homo sapiens, UniProt P53779); test: In vitro kinase screening (Kinase HotSpot); format: biochemical; conditions: single dose of 10 µM
T16 construct: purchased Reaction Biology Corp
Excerpt: as §1

[17] = target: T17, mTOR/FRAP1 (Homo sapiens, UniProt P42345); test: In vitro kinase screening (Kinase HotSpot); format: biochemical; conditions: single dose of 10 µM
T17 construct: purchased Reaction Biology Corp
Excerpt: as §1

[18] = target: T18, ABL1 (T315I) (Homo sapiens, UniProt P00519, T315I); test: In vitro kinase screening (Kinase HotSpot); format: biochemical; conditions: single dose of 10 µM
T18 construct: purchased Reaction Biology Corp
Excerpt: as §1

[19] = target: T19, CDK2/cyclin E (Homo sapiens, UniProt P24941); test: In vitro kinase screening (Kinase HotSpot); format: biochemical; conditions: single dose of 10 µM
T19 construct: purchased Reaction Biology Corp
Excerpt: as §1

[20] = system: NCI-60 cell line panel; test: NCI-60 single-dose (10 µM) antiproliferative screening, mean over panel; format: cell-based; conditions: single-dose 10 µM
Protocol: Screening against the cancer cell lines was carried out at the National Cancer Institute (NCI, Bethesda, Maryland, USA) applying the standard protocol of the NCI[22].
The final target compounds were submitted to the National Cancer Institute (NCI), Maryland, USA[23]. Thirty-one compounds were selected to be tested over 60 cell lines at single dose 10 µM.

T15 sequence (P45983 whole entry): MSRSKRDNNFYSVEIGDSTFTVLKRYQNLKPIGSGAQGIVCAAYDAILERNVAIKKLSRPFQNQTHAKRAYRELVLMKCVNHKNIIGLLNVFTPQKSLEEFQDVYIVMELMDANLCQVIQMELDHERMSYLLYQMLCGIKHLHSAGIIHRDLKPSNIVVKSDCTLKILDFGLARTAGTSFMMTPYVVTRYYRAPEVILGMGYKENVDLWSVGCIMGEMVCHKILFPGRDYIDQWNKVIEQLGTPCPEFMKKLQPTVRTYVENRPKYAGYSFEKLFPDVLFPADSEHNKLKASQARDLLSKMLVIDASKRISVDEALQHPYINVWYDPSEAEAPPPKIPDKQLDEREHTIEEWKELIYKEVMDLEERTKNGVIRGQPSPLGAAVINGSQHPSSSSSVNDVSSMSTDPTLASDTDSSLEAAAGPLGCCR
T1 sequence (P15056 whole entry): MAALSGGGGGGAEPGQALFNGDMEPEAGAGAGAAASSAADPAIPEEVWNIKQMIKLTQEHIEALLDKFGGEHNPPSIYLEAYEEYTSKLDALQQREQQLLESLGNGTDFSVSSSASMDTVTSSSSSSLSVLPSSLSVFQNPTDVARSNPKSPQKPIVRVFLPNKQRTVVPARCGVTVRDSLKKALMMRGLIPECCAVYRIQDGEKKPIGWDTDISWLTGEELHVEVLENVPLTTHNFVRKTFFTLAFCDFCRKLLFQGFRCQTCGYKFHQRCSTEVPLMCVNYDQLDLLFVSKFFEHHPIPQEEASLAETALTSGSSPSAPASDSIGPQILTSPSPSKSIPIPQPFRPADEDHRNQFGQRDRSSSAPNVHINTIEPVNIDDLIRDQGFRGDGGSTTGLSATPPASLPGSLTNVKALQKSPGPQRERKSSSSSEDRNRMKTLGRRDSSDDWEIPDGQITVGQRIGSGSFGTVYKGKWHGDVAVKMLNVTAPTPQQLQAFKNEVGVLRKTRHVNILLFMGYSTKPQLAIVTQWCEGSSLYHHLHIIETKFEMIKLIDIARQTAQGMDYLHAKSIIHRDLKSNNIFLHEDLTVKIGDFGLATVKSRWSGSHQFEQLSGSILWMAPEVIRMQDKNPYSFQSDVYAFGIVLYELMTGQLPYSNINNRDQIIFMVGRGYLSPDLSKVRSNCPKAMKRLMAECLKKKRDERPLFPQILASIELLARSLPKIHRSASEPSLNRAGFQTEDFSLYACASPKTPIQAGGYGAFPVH
T10 sequence (Q16539 whole entry): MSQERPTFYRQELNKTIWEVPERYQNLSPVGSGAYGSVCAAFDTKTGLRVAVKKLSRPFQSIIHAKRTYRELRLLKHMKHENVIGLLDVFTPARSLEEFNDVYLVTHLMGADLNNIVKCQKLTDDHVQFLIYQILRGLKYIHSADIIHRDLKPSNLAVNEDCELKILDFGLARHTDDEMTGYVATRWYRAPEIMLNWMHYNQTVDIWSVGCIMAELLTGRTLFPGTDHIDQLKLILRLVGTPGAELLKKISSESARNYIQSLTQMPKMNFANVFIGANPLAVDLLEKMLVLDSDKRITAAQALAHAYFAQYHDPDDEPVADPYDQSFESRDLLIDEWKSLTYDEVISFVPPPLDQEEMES
T5 sequence (P49841 whole entry): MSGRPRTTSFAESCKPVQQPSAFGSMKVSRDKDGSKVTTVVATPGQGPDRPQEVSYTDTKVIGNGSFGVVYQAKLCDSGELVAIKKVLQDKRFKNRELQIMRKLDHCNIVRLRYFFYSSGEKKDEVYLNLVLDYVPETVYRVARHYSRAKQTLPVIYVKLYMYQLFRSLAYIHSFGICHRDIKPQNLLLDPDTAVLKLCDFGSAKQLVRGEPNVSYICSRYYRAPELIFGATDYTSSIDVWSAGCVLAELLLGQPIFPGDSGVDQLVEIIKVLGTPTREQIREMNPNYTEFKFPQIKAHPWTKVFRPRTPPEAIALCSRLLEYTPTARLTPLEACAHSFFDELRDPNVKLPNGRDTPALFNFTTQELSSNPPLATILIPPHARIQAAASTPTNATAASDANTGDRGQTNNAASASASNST
T3 sequence (P07333 20-972): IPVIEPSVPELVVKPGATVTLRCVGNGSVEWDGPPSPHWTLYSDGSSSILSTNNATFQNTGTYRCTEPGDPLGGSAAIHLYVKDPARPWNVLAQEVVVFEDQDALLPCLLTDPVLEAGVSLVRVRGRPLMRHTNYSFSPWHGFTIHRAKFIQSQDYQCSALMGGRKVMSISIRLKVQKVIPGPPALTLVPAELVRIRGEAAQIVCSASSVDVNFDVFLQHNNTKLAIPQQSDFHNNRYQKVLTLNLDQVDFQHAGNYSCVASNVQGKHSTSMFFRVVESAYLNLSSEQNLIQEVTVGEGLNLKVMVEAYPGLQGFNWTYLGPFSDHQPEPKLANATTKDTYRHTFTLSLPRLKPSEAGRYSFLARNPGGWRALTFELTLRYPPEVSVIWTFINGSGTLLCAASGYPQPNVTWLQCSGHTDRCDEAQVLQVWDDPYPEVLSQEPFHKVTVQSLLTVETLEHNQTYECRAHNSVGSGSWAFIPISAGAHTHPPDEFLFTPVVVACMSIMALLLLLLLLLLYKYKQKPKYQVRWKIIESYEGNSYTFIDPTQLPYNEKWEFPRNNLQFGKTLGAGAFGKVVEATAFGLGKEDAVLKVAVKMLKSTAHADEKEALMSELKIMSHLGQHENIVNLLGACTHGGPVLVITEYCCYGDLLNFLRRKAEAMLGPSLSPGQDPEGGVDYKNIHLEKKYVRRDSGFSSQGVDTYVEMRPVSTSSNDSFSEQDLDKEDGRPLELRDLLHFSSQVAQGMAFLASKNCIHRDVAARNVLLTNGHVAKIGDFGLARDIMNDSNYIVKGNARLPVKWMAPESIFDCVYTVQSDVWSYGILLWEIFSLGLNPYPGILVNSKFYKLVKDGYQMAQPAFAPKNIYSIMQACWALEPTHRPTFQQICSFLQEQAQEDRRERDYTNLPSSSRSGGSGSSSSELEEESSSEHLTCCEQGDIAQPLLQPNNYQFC
T8 sequence (P36507 whole entry): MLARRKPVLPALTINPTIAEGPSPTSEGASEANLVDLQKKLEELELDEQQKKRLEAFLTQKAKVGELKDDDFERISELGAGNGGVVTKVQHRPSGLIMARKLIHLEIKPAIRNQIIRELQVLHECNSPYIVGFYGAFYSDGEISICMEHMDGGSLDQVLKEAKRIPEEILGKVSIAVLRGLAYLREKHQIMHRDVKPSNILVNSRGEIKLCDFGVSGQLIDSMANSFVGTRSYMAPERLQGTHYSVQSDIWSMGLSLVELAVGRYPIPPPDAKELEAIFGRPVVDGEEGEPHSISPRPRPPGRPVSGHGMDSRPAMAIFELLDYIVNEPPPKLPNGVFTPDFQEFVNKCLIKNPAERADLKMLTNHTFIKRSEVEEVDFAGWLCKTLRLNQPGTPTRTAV
T9 sequence (P00533 25-1210): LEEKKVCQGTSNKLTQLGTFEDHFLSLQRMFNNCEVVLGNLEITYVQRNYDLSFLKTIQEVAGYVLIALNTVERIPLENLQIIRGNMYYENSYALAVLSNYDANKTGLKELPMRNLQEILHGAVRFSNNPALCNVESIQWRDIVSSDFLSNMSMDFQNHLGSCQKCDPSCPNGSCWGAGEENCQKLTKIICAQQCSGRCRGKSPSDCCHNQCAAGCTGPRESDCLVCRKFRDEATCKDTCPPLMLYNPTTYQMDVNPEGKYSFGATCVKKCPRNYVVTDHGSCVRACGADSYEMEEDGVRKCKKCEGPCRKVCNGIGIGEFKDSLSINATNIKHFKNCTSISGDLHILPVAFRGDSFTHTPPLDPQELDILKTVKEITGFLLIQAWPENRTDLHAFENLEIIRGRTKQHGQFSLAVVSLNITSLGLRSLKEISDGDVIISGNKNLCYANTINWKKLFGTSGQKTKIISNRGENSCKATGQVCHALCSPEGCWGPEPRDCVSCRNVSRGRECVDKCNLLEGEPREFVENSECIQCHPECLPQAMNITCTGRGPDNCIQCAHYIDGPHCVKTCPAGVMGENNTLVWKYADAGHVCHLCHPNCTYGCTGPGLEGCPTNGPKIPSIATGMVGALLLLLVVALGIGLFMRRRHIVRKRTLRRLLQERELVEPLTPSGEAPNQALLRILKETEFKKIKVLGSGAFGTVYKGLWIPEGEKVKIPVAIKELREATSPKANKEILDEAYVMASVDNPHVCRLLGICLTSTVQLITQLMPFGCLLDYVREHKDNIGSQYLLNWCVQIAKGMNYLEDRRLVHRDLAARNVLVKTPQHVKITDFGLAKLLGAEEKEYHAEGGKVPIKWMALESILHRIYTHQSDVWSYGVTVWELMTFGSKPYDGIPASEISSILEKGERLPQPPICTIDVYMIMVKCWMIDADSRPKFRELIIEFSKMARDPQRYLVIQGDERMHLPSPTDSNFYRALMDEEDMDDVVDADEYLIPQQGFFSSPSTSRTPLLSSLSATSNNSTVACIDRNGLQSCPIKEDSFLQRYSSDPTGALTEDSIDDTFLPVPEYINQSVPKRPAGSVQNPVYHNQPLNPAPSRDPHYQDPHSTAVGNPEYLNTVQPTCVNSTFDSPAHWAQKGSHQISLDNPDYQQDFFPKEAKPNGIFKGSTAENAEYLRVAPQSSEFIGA
T12 sequence (P27361 whole entry): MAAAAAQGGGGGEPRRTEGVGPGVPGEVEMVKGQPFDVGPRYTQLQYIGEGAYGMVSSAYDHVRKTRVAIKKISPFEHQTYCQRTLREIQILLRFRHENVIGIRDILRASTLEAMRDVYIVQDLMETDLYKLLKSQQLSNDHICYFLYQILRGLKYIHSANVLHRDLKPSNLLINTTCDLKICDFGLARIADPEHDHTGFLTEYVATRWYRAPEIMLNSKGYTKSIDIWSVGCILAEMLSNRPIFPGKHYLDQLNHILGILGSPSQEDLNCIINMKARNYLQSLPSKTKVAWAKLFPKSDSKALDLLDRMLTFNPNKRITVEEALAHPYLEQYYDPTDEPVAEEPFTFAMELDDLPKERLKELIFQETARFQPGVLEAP

Q: `O=S(=O)(NCCCNc1cc(-c2cn(-c3ccccc3)nc2-c2cccc(O)c2)ccn1)c1ccc(Cl)cc1` [Compound 2l, 4-Chloro-N-(3-((4-(3-(3-hydroxyphenyl)-1-phenyl-1H-pyrazol-4-yl)pyridin-2-yl)amino)propyl) benzenesulfonamide] was tested. Which IC50 [1] did it give?
A: 4870 ± 70 nM

Q: What about the Inhibition % ([1]; single dose of 10 µM) of the same compound?
A: 72.56 ± 0.27%

Q: And the Inhibition % [2]?
A: 10.05 ± 0.10%

Q: And the Inhibition % [3]?
A: 24.24 ± 1.14%

Q: What about the Inhibition % [4] of the same compound?
A: 24.03 ± 0.51%

Q: And the Inhibition % [5]?
A: 75.45 ± 0.28%

Q: And the Inhibition % [6]?
A: 22.21 ± 0.41%

Q: And the Inhibition % [7]?
A: −2.94 ± 0.17%

Q: What about the Inhibition % [8] of the same compound?
A: 11.73 ± 1.60%

Q: What about the Inhibition % [9] of the same compound?
A: 11.74 ± 4.78%

Q: And the IC50 ([10]; MAPK14)?
A: 1130 ± 90 nM

Q: And the Inhibition % ([10]; single dose of 10 µM, P38a/MAPK14)?
A: 86.54 ± 0.61%

Q: What about the Inhibition % [11] of the same compound?
A: 16.65 ± 0.11%

Q: What about the Inhibition % [12] of the same compound?
A: 13.07 ± 0.93%

Q: What about the Inhibition % [13] of the same compound?
A: 0.56 ± 1.08%

Q: What about the IC50 [14] of the same compound?
A: 3520 ± 10 nM

Q: What about the IC50 [15] of the same compound?
A: 350 ± 40 nM

Q: And the Inhibition % ([15]; single dose of 10 µM, 10 µM)?
A: 99.02% and 99.05 ± 0.03%

Q: And the Inhibition % [16]?
A: 89.50 ± 0.03%

Q: And the Inhibition % [17]?
A: 0.72 ± 0.32%

Q: And the Inhibition % [18]?
A: –10.98 ± 0.40%

Q: And the Inhibition % [19]?
A: 22.92 ± 1.14%

Q: What about the Mean % inhibition ([20]; 60-cancer cell line screening) of the same compound?
A: 97.80%

Q: What about the “number of cell lines with more than 100% inhibition” value ([20]; NCI-60 panel) of the same compound?
A: 24

Source: publication PMC6211260 (Journal of Enzyme Inhibition and Medicinal Chemistry, 2018)
